Where a name gives a salt, the structure may show the parent alone.
What follows are compounds tested on glycolysis in HT1080 cells (assay: Glycolysis assay: oligomycin plus compound, cellular ATP by Cell Titer Glo). Settings: Homo sapiens, HT-1080, 1 h, 10 μM oligomycin, one hour, class symbols.
Format: cell-based
Text: Therefore, an assay was developed that utilizes the combination of the glucose uptake inhibitors disclosed herein with oligomycin, a well-characterized inhibitor of ATP synthase. Because oligomycin inhibits ATP derived from oxidative phosphorylation, any remaining ATP production is derived from glycolysis. By reading out cellular ATP levels using the Promega Cell Titer Glo kit, the extent of glycolysis inhibition by the glucose uptake inhibitors disclosed herein can be assessed. […] Utilizing this experimental set-up, the IC50 of glycolysis inhibition for each compound can be determined.
Determination of Glucose Uptake/GLUT Activity (Glycolysis Assay):
HT1080 cells (as well as other cell types) were plated to confluency in 96-well plates. Cells were exposed to the combination of 10 μM Oligomycin (to block mitochondrial-derived ATP) and the glucose uptake inhibitors disclosed herein for one-hour, after which glycolytically-derived ATP was measured with the Cell Titer-Glo assay kit (Promega). Dose-response curves of the glucose uptake inhibitors disclosed herein were used to determine the IC50 for GLUT activity.
With `Cn1ncc2nc(-c3cccc(OCC(=O)NC4CCC4)c3)nc(Nc3ccc(-c4cn[nH]c4)cc3)c21` [Example 59, 2-(3-(7-((4-(1H-pyrazol-4-yl)phenyl)amino)-1-methyl-1H-pyrazolo[4,3-d]pyrimidin-5-yl)phenoxy)-N-cyclobutylacetamide] the IC50 was > 1000 nM.
`CCC(CC)NC(=O)COc1cccc(-c2nc3c(c(Nc4ccc(-c5cn[nH]c5)cc4)n2)CN(C(C)=O)C3)c1` [Example 141, 2-(3-(4-((4-(1H-pyrazol-4-yl)phenyl)amino)-6-acetyl-6,7-dihydro-5H-pyrrolo[3,4-d]pyrimidin-2-yl)phenoxy)-N-(pentan-3-yl)acetamide] gave an IC50 of 10 to 100 nM.
With `O=C(COc1cccc(-c2nc3c(c(Nc4ccc(-c5cn[nH]c5)cc4)n2)CNCC3)c1)NC1CCC1` [Example 157, 2-(3-(4-((4-(1H-pyrazol-4-yl)phenyl)amino)-5,6,7,8-tetrahydropyrido[4,3-d]pyrimidin-2-yl)phenoxy)-N-cyclobutylacetamide] the IC50 was 101 to 250 nM.
`CC(C)(C)CNC(=O)COc1cccc(-c2nc3c(c(Nc4ccc(-c5cn[nH]c5)cc4)n2)COCC3)c1` [Example 105, 2-(3-(4-((4-(1H-pyrazol-4-yl)phenyl)amino)-7,8-dihydro-5H-pyrano[4,3-d]pyrimidin-2-yl)phenoxy)-N-neopentylacetamide] showed an IC50 of 10 to 100 nM.
For `CN1CCN(CC(=O)Nc2cccc(-c3nc(Nc4ccc(-c5cn[nH]c5)cc4)c4sccc4n3)c2)CC1` [Example 183, N-(3-(4-((4-(1H-pyrazol-4-yl)phenyl)amino)thieno[3,2-d]pyrimidin-2-yl)phenyl)-2-(4-methylpiperazin-1-yl)acetamide], the IC50 was 501 to 1000 nM.
Work on `CC(Oc1cccc(-c2nc3c(c(Nc4ccc(-c5cn[nH]c5)cc4)n2)COC3)c1)C(=O)NCC(C)(C)C` (centres unmarked) [Example 189, 2-(3-(4-((4-(1H-pyrazol-4-yl)phenyl)amino)-5,7-dihydrofuro[3,4-d]pyrimidin-2-yl)phenoxy)-N-neopentylpropanamide] yielded an IC50 of 251 to 500 nM.
With `CC(C)NC(=O)COc1cccc(-c2nc(Nc3ccc(-c4cn[nH]c4)cc3)c3ncccc3n2)c1` [Example 48, 2-(3-(4-((4-(1H-pyrazol-4-yl)phenyl)amino)pyrido[3,2-d]pyrimidin-2-yl)phenoxy)-N-isopropylacetamide] the IC50 was > 1000 nM.
For `CC(C)NC(=O)COc1cccc(-c2nc(Nc3ccc(-c4cn[nH]c4)cc3)c3cnn(C)c3n2)c1` [Example 55, 2-(3-(4-((4-(1H-pyrazol-4-yl)phenyl)amino)-1-methyl-1H-pyrazolo[3,4-d]pyrimidin-6-yl)phenoxy)-N-isopropylacetamide], the IC50 was 251 to 500 nM.
For `Cn1cnc2c(Nc3ccc4[nH]ncc4c3)nc(-c3cccc(NC(=O)CN4CCOCC4)c3)nc21` [Example 14], the IC50 was > 1000 nM.
`CC(C)NC(=O)COc1cc(F)cc(-c2nc(Nc3ccc(-c4cn[nH]c4)cc3)c3sccc3n2)c1` [Example 34] was tested, and the IC50 was > 1000 nM.
For `O=C(Nc1cccc(-c2nc(Nc3ccc(-c4cn[nH]c4)cc3)c3sccc3n2)c1)c1ccccn1` [Example 176, N-(3-(4-((4-(1H-pyrazol-4-yl)phenyl)amino)thieno[3,2-d]pyrimidin-2-yl)phenyl)picolinamide], the IC50 was > 1000 nM.
`CCC(C)(C)NC(=O)COc1cccc(-c2nc(Nc3ccc(-c4cn[nH]c4)cc3)c3ccncc3n2)c1` [Example 165, 2-(3-(4-((4-(1H-pyrazol-4-yl)phenyl)amino)pyrido[3,4-d]pyrimidin-2-yl)phenoxy)-N-(tert-pentyl)acetamide] gave an IC50 of 10 to 100 nM.
In the case of `CNC(=O)COc1cccc(-c2nc3c(c(Nc4ccc(-c5cn[nH]c5)cc4)n2)COC3)c1` [Example 42, 2-(3-(4-((4-(1H-pyrazol-4-yl)phenyl)amino)-5,7-dihydrofuro[3,4-d]pyrimidin-2-yl)phenoxy)-N-methylacetamide], the IC50 is reported as > 1000 nM.
Compound `CC(C)(C)CNC(=O)COc1cccc(-c2nc3c(c(Nc4ccc(-c5cn[nH]c5)cc4)n2)CNCC3)c1` [Example 167, 2-(3-(4-((4-(1H-pyrazol-4-yl)phenyl)amino)-5,6,7,8-tetrahydropyrido[4,3-d]pyrimidin-2-yl)phenoxy)-N-neopentylacetamide] has an IC50 of 10 to 100 nM.
For `O=C(COc1cccc(-c2nc(Nc3ccc(-c4cn[nH]c4)cc3)c3ncccc3n2)c1)NC1CCC1` [Example 49, 2-(3-(4-((4-(1H-pyrazol-4-yl)phenyl)amino)pyrido[3,2-d]pyrimidin-2-yl)phenoxy)-N-cyclobutylacetamide], the IC50 was 101 to 250 nM.
`CC(C)(C)CNC(=O)COc1cccc(-c2nc3c(c(Nc4ccc(-c5cn[nH]c5)cc4)n2)COC3)c1` [Example 79, 2-(3-(4-((4-(1H-pyrazol-4-yl)phenyl)amino)-5,7-dihydrofuro[3,4-d]pyrimidin-2-yl)phenoxy)-N-neopentylacetamide] was tested, and the IC50 was 10 to 100 nM.
`Cn1cnc2c(Nc3ccc(-c4cn[nH]c4)cc3)nc(-c3cccc(OCC(=O)NC4CCC4)c3)nc21` [Example 29] showed an IC50 of 251 to 500 nM.
`CCC(CC)NC(=O)COc1cccc(-c2nc(Nc3ccc(-c4cn[nH]c4)cc3)c3ccncc3n2)c1` [Example 137, 2-(3-(4-((4-(1H-pyrazol-4-yl)phenyl)amino)pyrido[3,4-d]pyrimidin-2-yl)phenoxy)-N-(pentan-3-yl)acetamide dihydrochloride] showed an IC50 of 10 to 100 nM.
For `CC(C)CNC(=O)COc1cccc(-c2nc(Nc3ccc(-c4cn[nH]c4)cc3)c3cnn(C)c3n2)c1` [Example 57, 2-(3-(4-((4-(1H-pyrazol-4-yl)phenyl)amino)-1-methyl-1H-pyrazolo[3,4-d]pyrimidin-6-yl)phenoxy)-N-isobutylacetamide], the IC50 was 101 to 250 nM.
`O=C(Nc1cccc(-c2nc3c(c(Nc4ccc(-c5cn[nH]c5)cc4)n2)COC3)c1)c1ccccn1` [Example 177, N-(3-(4-((4-(1H-pyrazol-4-yl)phenyl)amino)-5,7-dihydrofuro[3,4-d]pyrimidin-2-yl)phenyl)picolinamide] was tested, and the IC50 was 10 to 100 nM.
`CCC(CC)NC(=O)COc1cccc(-c2nc3c(c(Nc4ccc(-c5cn[nH]c5)cc4)n2)CN(C(C)=O)CC3)c1` [Example 113, 2-(3-(4-((4-(1H-pyrazol-4-yl)phenyl)amino)-6-acetyl-5,6,7,8-tetrahydropyrido[4,3-d]pyrimidin-2-yl)phenoxy)-N-(pentan-3-yl)acetamide] was tested, and the IC50 was 10 to 100 nM.
Work on `CC(=O)N1Cc2nc(-c3cccc(OCC(=O)NC4CCCC4)c3)nc(Nc3ccc(-c4cn[nH]c4)cc3)c2C1` [Example 143, 2-(3-(4-((4-(1H-pyrazol-4-yl)phenyl)amino)-6-acetyl-6,7-dihydro-5H-pyrrolo[3,4-d]pyrimidin-2-yl)phenoxy)-N-cyclopentylacetamide] yielded an IC50 of 10 to 100 nM.
In the case of `CC(C)NC(=O)COc1cccc(-c2nc3c(c(Nc4ccc5[nH]ncc5c4)n2)COC3)c1` [Example 11, 2-(3-(4-((1H-indazol-5-yl)amino)-5,7-dihydrofuro[3,4-d]pyrimidin-2-yl)phenoxy)-N-isopropylacetamide], the IC50 is reported as > 1000 nM.
For `CC(C)NC(=O)COc1cc(F)cc(-c2nc(Nc3ccc(-c4cn[nH]c4)cc3)c3ccsc3n2)c1` [Example 35], the IC50 was > 1000 nM.
For `O=C(COc1cccc(-c2nc(Nc3ccc(-c4cn[nH]c4)cc3)c3ccncc3n2)c1)NC1CCC1` [Example 63, 2-(3-(4-((4-(1H-pyrazol-4-yl)phenyl)amino)pyrido[3,4-d]pyrimidin-2-yl)phenoxy)-N-cyclobutylacetamide], the IC50 was 10 to 100 nM.
Compound `Cn1ncc2nc(-c3cccc(OCC(=O)NC4CCCC4)c3)nc(Nc3ccc(-c4cn[nH]c4)cc3)c21` [Example 60, 2-(3-(7-((4-(1H-pyrazol-4-yl)phenyl)amino)-1-methyl-1H-pyrazolo[4,3-d]pyrimidin-5-yl)phenoxy)-N-cyclopentylacetamide] has an IC50 of 501 to 1000 nM.
Work on `CCC(CC)NC(=O)COc1cccc(-c2nc3c(c(Nc4ccc(-c5cn[nH]c5)cc4)n2)COC3)c1` [Example 76, 2-(3-(4-((4-(1H-pyrazol-4-yl)phenyl)amino)-5,7-dihydrofuro[3,4-d]pyrimidin-2-yl)phenoxy)-N-(pentan-3-yl)acetamide dihydrochloride] yielded an IC50 of 10 to 100 nM.
For `CCC(CC)NC(=O)COc1cc(-c2nc3c(c(Nc4ccc(-c5cn[nH]c5)cc4)n2)COC3)ccc1F` [Example 97, 2-(5-(4-((4-(1H-pyrazol-4-yl)phenyl)amino)-5,7-dihydrofuro[3,4-d]pyrimidin-2-yl)-2-fluorophenoxy)-N-(pentan-3-yl)acetamide], the IC50 was > 1000 nM.
Compound `Cc1ccncc1C(=O)Nc1cccc(-c2nc3c(c(Nc4ccc(-c5cn[nH]c5)cc4)n2)COC3)c1` [Example 74, N-(3-(4-((4-(1H-pyrazol-4-yl)phenyl)amino)-5,7-dihydrofuro[3,4-d]pyrimidin-2-yl)phenyl)-4-methylnicotinamide] has an IC50 of 101 to 250 nM.
`CC(C)NC(=O)COc1cccc(-c2nc(Nc3ccc(-c4cn[nH]c4)cc3)c3ccncc3n2)c1` [Example 62, 2-(3-(4-((4-(1H-pyrazol-4-yl)phenyl)amino)pyrido[3,4-d]pyrimidin-2-yl)phenoxy)-N-isopropylacetamide] was tested, and the IC50 was 10 to 100 nM.
`CC(C)(C)NC(=O)COc1cccc(-c2nc(Nc3ccc(-c4cn[nH]c4)cc3)c3cnccc3n2)c1` [Example 135, 2-(3-(4-((4-(1H-pyrazol-4-yl)phenyl)amino)pyrido[4,3-d]pyrimidin-2-yl)phenoxy)-N-(tert-butyl)acetamide] showed an IC50 of 10 to 100 nM.

Same assay, conditions: Homo sapiens, HT-1080, 1 h, 10 μM oligomycin, one hour, number printed instead of class
In the case of `CC(C)N1CCc2nc(-c3cccc(OCC(=O)NCC(C)(C)C)c3)nc(Nc3ccc(-c4cn[nH]c4)cc3)c2C1` [Example 169, 2-(3-(4-((4-(1H-pyrazol-4-yl)phenyl)amino)-6-isopropyl-5,6,7,8-tetrahydropyrido[4,3-d]pyrimidin-2-yl)phenoxy)-N-neopentylacetamide], the IC50 is reported as 290 nM.
